These results are taken from patent US20160046618A1, “Cyclopropyl Fused Thiazin-2-Amine Compounds as Beta-Secretase Inhibitors and Methods of Use” (AMGEN INC., priority 2014, published 2016).

As usually defined, the IC50 is the concentration needed to halve the response being measured.

A value given as a limit tells only on which side of the number the result lay.

One test concerns the target human recombinant BACE1 (Homo sapiens (Human), UniProt P56817). As to the kind of experiment: In vitro enzymatic BACE1 FRET assay. Type of test: biochemical. The settings on record: BACE1 FRET enzyme assay; read-out: IC50 IP (μM) BACE1 enzyme. The essentials: (§1)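 FRET cleavage assay using Ni-NTA-purified recombinant protease and 50 nM quenched peptide substrate, 1 h. Stopped by neutralising with Tris; fluorescence at 488/590 nm.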

In a further test the test system is Aβ 40 in rat brain. As to the kind of experiment: In vivo inhibition of beta-secretase: Aβ40 reduction in rat brain. As to conditions: after 4 h. An excerpt: (§2) In Vivo Inhibition of Beta-Secretase
Several animal models, including mouse, rat, dog, and monkey, may be used to screen for inhibition of beta-secretase activity in vivo following administration of a test compound sample. Animals used in this invention can be wild type, transgenic, or gene knockout animals. […] One to twenty-four hours following the administration of compound, animals are sacrificed, and brains as well as cerebrospinal fluid (CSF) and plasma are removed for analysis of A-beta levels and drug or test compound concentrations (Dovey et al., 2001, Journal of Neurochemistry, 76,173-181) Beginning at time 0, animals are administered by oral gavage, or other means of delivery such as intravenous injection, an inhibitory test compound of up to 100 mg/kg in a standard, conventional formulation, such as 2% hydroxypropyl methylcellulose, 1% Tween80. A separate group of animals receive 2% hydroxypropyl methylcellulose, 1% Tween80 alone, containing no test compound, and serve as a vehicle-control group. At the end of the test period, animals are sacrificed and brain tissues, plasma or cerebrospinal fluid are collected. […] Homogenates are centrifuged at 355,000 g, 4° C. for 30 minutes. CSF or brain supernatants are then analyzed for the presence of A-beta peptide by specific sandwich ELISA assays based on ECL (Electrochemiluminescence) technology. For example, rat Abeta40 is measured using biotinylated-4G8 (Signet) as a capture antibody and Fab40 (an in-house antibody specific to the C-terminal of Abeta40) as a detection antibody.
(§3) Actual vehicles used: Oral: 2% HPMC, 1% Tween80, pH 2.2

The next test concerns Aβ 40 in rat CSF. As to the kind of experiment: In vivo inhibition of beta-secretase: Aβ40 reduction in rat CSF. The settings on record: after 4 h.
Excerpt: as §2
Several animal models, including mouse, rat, dog, and monkey, may be used to screen for inhibition of beta-secretase activity in vivo following administration of a test compound sample. Animals used in this invention can be wild type, transgenic, or gene knockout animals. For example, the Tg2576 mouse model, prepared and conducted as described in Hsiao et al., 1996, Science 274, 99-102, and other non-transgenic or gene knockout animals are useful to analyze in vivo inhibition of Amyloid beta peptide (Abeta) production in the presence of inhibitory test compounds. Generally, 2 to 18 month old Tg2576 mice, gene knockout mice or non-transgenic animals are administered test compounds formulated in vehicles, such as cyclodextran, phosphate buffers, hydroxypropyl methylcellulose or other suitable vehicles. One to twenty-four hours following the administration of compound, animals are sacrificed, and brains as well as cerebrospinal fluid (CSF) and plasma are removed for analysis of A-beta levels and drug or test compound concentrations (Dovey et al., 2001, Journal of Neurochemistry, 76,173-181) Beginning at time 0, animals are administered by oral gavage, or other means of delivery such as intravenous injection, an inhibitory test compound of up to 100 mg/kg in a standard, conventional formulation, such as 2% hydroxypropyl methylcellulose, 1% Tween80. A separate group of animals receive 2% hydroxypropyl methylcellulose, 1% Tween80 alone, containing no test compound, and serve as a vehicle-control group. At the end of the test period, animals are sacrificed and brain tissues, plasma or cerebrospinal fluid are collected. […] Homogenates are centrifuged at 355,000 g, 4° C. for 30 minutes. CSF or brain supernatants are then analyzed for the presence of A-beta peptide by specific sandwich ELISA assays based on ECL (Electrochemiluminescence) technology. For example, rat Abeta40 is measured using biotinylated-4G8 (Signet) as a capture antibody and Fab40 (an in-house antibody specific to the C-terminal of Abeta40) as a detection antibody. For example, 4 hours after administration of 30 mg/kg oral dose of the test compound in 2% hydroxypropyl methylcellulose, 1% Tween80 (pH2.2) to 200 g male Sprague Dawley rats, amyloid beta peptide levels are measured for reduction by X % and Y % in cerebrospinal fluid and brain, respectively, when compared to the levels measured in the vehicle-treated or control mice.
as §3
The compounds of the invention may be shown to reduce the formation and/or deposition of amyloid beta peptide in the cerebrospinal fluid (CSF) as well as in the brain of a mouse or rat at either 3 mpk, 10 mpk or 30 mpk (mpk=mg compound per kg weight of the animal) dosing concentrations after 4 h.

In another test the target is human recombinant BACE2 (Homo sapiens (Human), UniProt Q9Y5Z0). Description: In vitro enzymatic BACE2 FRET assay. Type of test: biochemical. As to conditions: BACE2 FRET enzyme assay; read-out: IC50 IP (μM) BACE2 enzyme. In short, it runs like this:
as §1

The subject of test [1] is Aβ40 in conditioned medium of cells stably expressing Amyloid Precursor Protein (APP). As to the kind of experiment: In vitro BACE-1 cell-based assay (Aβ40 sandwich ELISA). As to conditions: BACE1 cell-based assay; read-out: IC50 IP (μM) BACE1 cell. The essentials: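 APP-stable cells, pre-cultured 24 h at 37° C in DMEM/10% FBS, were treated 24 h with compound in a 10-point series starting at 100 μM or 10 μM (0.1% DMSO final). Secreted Aβ40 in conditioned medium was measured by pAb40/biotin-6E10 sandwich ELISA with Europium time-resolved fluorescence; IC50 from percent inhibition versus concentration.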
(In general: An ELISA detects its analyte on a solid surface through an enzyme-linked reagent.)

A further test addresses Recombinant Cat D (Homo sapiens (Human), UniProt P07339). As to the kind of experiment: In vitro enzymatic Cathepsin D (Cat D) FRET assay. Type of test: biochemical. The settings on record: Cathepsin D FRET enzyme assay; read-out: IC50 IP (μM) CatD. In short, it runs like this:
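Human Cat D expressed in CHO cells was incubated for one hour in 0.05 M citrate pH 3.5, 5 mM CHAPS, 10% DMSO final, with 20 nM quenched FRET peptide substrate. Reactions were stopped with Tris buffer raising pH to neutrality. Cleavage was read as fluorescence at excitation 500 nm, emission 580 nm.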

Recombinant Cat D, sequence (P07339 65-412): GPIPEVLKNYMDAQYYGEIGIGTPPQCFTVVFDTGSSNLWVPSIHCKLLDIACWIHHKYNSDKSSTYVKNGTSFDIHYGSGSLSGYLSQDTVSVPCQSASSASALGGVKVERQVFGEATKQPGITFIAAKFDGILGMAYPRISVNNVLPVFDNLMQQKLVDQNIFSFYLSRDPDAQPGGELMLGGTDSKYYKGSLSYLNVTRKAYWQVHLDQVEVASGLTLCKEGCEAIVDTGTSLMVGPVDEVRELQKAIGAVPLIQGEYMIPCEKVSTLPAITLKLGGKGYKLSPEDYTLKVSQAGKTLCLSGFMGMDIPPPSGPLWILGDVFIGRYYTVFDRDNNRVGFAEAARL
human recombinant BACE1, sequence (P56817 46-501): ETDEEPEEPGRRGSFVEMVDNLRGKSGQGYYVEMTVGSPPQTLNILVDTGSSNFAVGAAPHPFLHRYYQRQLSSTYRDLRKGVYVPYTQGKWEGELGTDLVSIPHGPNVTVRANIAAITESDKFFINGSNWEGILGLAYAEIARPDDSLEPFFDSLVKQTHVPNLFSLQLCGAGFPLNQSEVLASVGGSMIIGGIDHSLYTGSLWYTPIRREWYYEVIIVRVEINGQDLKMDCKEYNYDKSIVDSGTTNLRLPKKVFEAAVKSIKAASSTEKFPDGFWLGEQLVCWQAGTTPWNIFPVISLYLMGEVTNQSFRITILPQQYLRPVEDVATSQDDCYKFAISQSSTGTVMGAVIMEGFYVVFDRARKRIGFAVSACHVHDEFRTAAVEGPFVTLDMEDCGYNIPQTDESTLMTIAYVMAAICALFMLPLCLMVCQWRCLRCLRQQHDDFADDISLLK
human recombinant BACE2, sequence (Q9Y5Z0 63-518): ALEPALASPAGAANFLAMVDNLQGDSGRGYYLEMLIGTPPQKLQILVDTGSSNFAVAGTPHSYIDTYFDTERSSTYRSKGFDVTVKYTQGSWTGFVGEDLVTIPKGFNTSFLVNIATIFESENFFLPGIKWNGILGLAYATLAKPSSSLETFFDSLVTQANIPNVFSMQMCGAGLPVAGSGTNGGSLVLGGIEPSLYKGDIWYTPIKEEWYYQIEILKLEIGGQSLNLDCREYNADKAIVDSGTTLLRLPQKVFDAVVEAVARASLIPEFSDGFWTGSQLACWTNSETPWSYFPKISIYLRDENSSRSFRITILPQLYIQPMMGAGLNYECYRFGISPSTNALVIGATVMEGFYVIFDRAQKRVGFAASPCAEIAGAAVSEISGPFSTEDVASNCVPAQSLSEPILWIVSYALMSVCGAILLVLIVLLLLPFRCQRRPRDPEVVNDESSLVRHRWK

Take `N#Cc1cnc2c(Nc3ccc(F)c([C@@]4(CF)N=C(N)S[C@H]5CC54)c3)nccc2c1` (stereo in doubt) [Example 38, 8-((3-((1S,5S,6S)-3-amino-5-(fluoromethyl)-2-thia-4-azabicyclo[4.1.0]hept-3-en-5-yl)-4-fluorophenyl)amino)-1,7-naphthyridine-3-carbonitrile]: the 50% inhibitory concentration (IC50) is 0.0157 µM on human recombinant BACE1, 0.00728 µM on human recombinant BACE2, 0.0144 µM in test [1] and over 133 µM on Recombinant Cat D. In the test on Aβ 40 in rat brain, the “% Aβ 40 reduction in rat brain at 10 mpk” value turned out to be 44%. The “% Aβ 40 reduction in rat CSF at 10 mpk” value in the test on Aβ 40 in rat CSF is listed as 66%.

Turning to `NC1=N[C@](CF)(c2cc(Nc3nccc4nc(OCc5ncco5)cnc34)ccc2F)C2C[C@@H]2S1` (stereo in doubt) [Example 56, N-(3-((1S,5S,6S)-3-amino-5-(fluoromethyl)-2-thia-4-azabicyclo[4.1.0]hept-3-en-5-yl)-4-fluorophenyl)-2-(1,3-oxazol-2-ylmethoxy)pyrido[3,4-b]pyrazin-5-amine], the IC50 was 0.00538 µM on human recombinant BACE1, 0.27 µM at human recombinant BACE2, 0.0135 µM in test [1] and over 400 µM at Recombinant Cat D. In the test with Aβ 40 in rat brain, the “% Aβ 40 reduction in rat brain at 10 mpk” value amounted to 32%. The “% Aβ 40 reduction in rat CSF at 10 mpk” value in the test with Aβ 40 in rat CSF was 50%.

In the case of `NC1=N[C@](CF)(c2cc(NC(=O)c3ccc(Cl)cn3)ccc2F)[C@@H]2C[C@@H]2S1` [Example 1, N-(3-((1S,5S,6S)-3-amino-5-(fluoromethyl)-2-thia-4-azabicyclo[4.1.0]hept-3-en-5-yl)-4-fluorophenyl)-5-chloro-2-pyridinecarboxamide], the IC50 at human recombinant BACE1 was 0.00551 µM; at human recombinant BACE2, 0.0022 µM; in test [1], 0.00871 µM; at Recombinant Cat D, 74.5 µM. Besides, the “% Aβ 40 reduction in rat brain at 10 mpk” value with Aβ 40 in rat brain is on record as 28%. Further, in the test on Aβ 40 in rat CSF, the “% Aβ 40 reduction in rat CSF at 10 mpk” value is recorded as 58%.

Consider `N#Cc1ccc(C(=O)Nc2ccc(F)c([C@@]3(CF)N=C(N)S[C@H]4C[C@H]43)c2)nc1` [Example 2, N-(3-((1S,5S,6S)-3-amino-5-(fluoromethyl)-2-thia-4-azabicyclo[4.1.0]hept-3-en-5-yl)-4-fluorophenyl)-5-cyano-2-pyridinecarboxamide], for which the IC50 is 0.00747 µM on human recombinant BACE1, 0.0129 µM on human recombinant BACE2, 0.00437 µM in test [1] and over 400 µM at Recombinant Cat D. The “% Aβ 40 reduction in rat brain at 10 mpk” value with Aβ 40 in rat brain came out at 67%. Also, the “% Aβ 40 reduction in rat CSF at 10 mpk” value in the test on Aβ 40 in rat CSF is 72%.

Turning to `NC1=N[C@](CF)(c2cc(NC(=O)c3ccc(Cl)cn3)cc(F)c2F)[C@@H]2C[C@@H]2S1` [Example 5, N-(3-((1S,5S,6S)-3-amino-5-(fluoromethyl)-2-thia-4-azabicyclo[4.1.0]hept-3-en-5-yl)-4,5-difluorophenyl)-5-chloro-2-pyridinecarboxamide], the half-inhibitory concentration (IC50) was found to be 0.00855 µM at human recombinant BACE1, 0.00154 µM on human recombinant BACE2, 0.0326 µM in test [1] and 1420 µM on Recombinant Cat D. In addition, the “% Aβ 40 reduction in rat brain at 10 mpk” value in the test with Aβ 40 in rat brain is given as 19%. The “% Aβ 40 reduction in rat CSF at 10 mpk” value in the test on Aβ 40 in rat CSF was determined as 43%.

In the case of `N#Cc1ccc(C(=O)Nc2cc(F)c(F)c([C@@]3(CF)N=C(N)S[C@H]4C[C@H]43)c2)nc1` [Example 11, N-(3-((1S,5S,6S)-3-amino-5-(fluoromethyl)-2-thia-4-azabicyclo[4.1.0]hept-3-en-5-yl)-4,5-difluorophenyl)-5-cyano-2-pyridinecarboxamide], the IC50 on human recombinant BACE1 was 0.0104 µM; on human recombinant BACE2, 0.0275 µM; in test [1], 0.0119 µM; on Recombinant Cat D, over 400 µM. In addition, the “% Aβ 40 reduction in rat brain (3 mpk)” value with Aβ 40 in rat brain is given as 25 (3 mpk) %. Besides, the “% Aβ 40 reduction in rat CSF (3 mpk)” value with Aβ 40 in rat CSF is 41 (3 mpk) %.

Regarding `Cc1cc(C#N)cnc1C(=O)Nc1cc(F)c(F)c([C@@]2(CF)N=C(N)S[C@H]3C[C@H]32)c1` [Example 13, N-(3-((1S,5S,6S)-3-amino-5-(fluoromethyl)-2-thia-4-azabicyclo[4.1.0]hept-3-en-5-yl)-4,5-difluorophenyl)-5-cyano-3-methyl-2-pyridinecarboxamide], the IC50 was 0.00548 µM at human recombinant BACE1, 0.00618 µM at human recombinant BACE2, 0.00899 µM in test [1] and over 400 µM on Recombinant Cat D. Also, in the test on Aβ 40 in rat brain, the “% Aβ 40 reduction in rat brain at 10 mpk” value came to 56%. In addition, the “% Aβ 40 reduction in rat CSF at 10 mpk” value in the test on Aβ 40 in rat CSF was determined as 70%.

Regarding `C#CCOc1cnc(C(=O)Nc2cc(F)c(F)c([C@@]3(CF)N=C(N)S[C@H]4C[C@H]43)c2)cn1` [Example 20, N-(3-((1S,5S,6S)-3-amino-5-(fluoromethyl)-2-thia-4-azabicyclo[4.1.0]hept-3-en-5-yl)-4,5-difluorophenyl)-5-(2-propyn-1-yloxy)-2-pyrazinecarboxamide], the half-inhibitory concentration (IC50) at human recombinant BACE1 is 0.0006 µM; on human recombinant BACE2 it was 0.0394 µM; in test [1], 0.00064 µM; at Recombinant Cat D, 47.1 µM. In addition, the “% Aβ 40 reduction in rat brain at 10 mpk” value in the test with Aβ 40 in rat brain was 76%. Further, the “% Aβ 40 reduction in rat CSF at 10 mpk” value with Aβ 40 in rat CSF is given as 80%.

Take `C[C@]1(c2cc(Nc3nccc4cc(C#N)cnc34)cc(F)c2F)N=C(N)S[C@H]2C[C@H]21` [Example 21, 8-((3-((1S,5S,6S)-3-amino-5-methyl-2-thia-4-azabicyclo[4.1.0]hept-3-en-5-yl)-4,5-difluorophenyl)amino)-1,7-naphthyridine-3-carbonitrile]: the IC50 is 0.0145 µM at human recombinant BACE1, 0.00534 µM on human recombinant BACE2, 0.0164 µM in test [1] and over 133 µM on Recombinant Cat D. In addition, the “% Aβ 40 reduction in rat brain at 10 mpk” value with Aβ 40 in rat brain came to 40%. In addition, in the test on Aβ 40 in rat CSF, the “% Aβ 40 reduction in rat CSF at 10 mpk” value was found to be 61%.

Turning to `C#CCOc1cnc(C(=O)Nc2cc(F)c(F)c([C@@]3(C)N=C(N)S[C@H]4C[C@H]43)c2)cn1` [Example 23, N-(3-((1S,5S,6S)-3-amino-5-methyl-2-thia-4-azabicyclo[4.1.0]hept-3-en-5-yl)-4,5-difluorophenyl)-5-(2-propyn-1-yloxy)-2-pyrazinecarboxamide], the IC50 is 0.00047 µM on human recombinant BACE1, 0.0374 µM at human recombinant BACE2, 0.00062 µM in test [1] and 81.9 µM at Recombinant Cat D. Moreover, in the test with Aβ 40 in rat brain, the “% Aβ 40 reduction in rat brain (3 mpk)” value was 61 (3 mpk) %. For the same molecule, in the test on Aβ 40 in rat CSF, the “% Aβ 40 reduction in rat CSF (3 mpk)” value is given as 70 (3 mpk) %.
